Assays:
[1] = tested on: HDAC2 and other class I or class II HDACs; assay: HDAC gene expression in MSN-enriched primary culture; assay type: cell-based, mouse; details: MSN-enriched primary cultures
Text: Stress-induced reduction of Rac1 expression is associated with a repressed chromatin state surrounding the promoter region of Rac1 in the NAc[11]. Since Mal-gluc can cross the BBB, we hypothesized that Mal-gluc may promote Rac1 expression, in part, by modulating chromatin acetylation. We first assessed the effect of Mal-gluc on HDACs that play key roles in chromatin deacetylation. […] Using site directed quantitative chromatin immunoprecipitation (qCHIP), we examined the permissive histone H3 acetylation (AcH3) in Mal-gluc treated MSN-enriched primary cultures.
Striatal tissue from E18 was mechanically triturated and centrifuged. Neurons were seeded onto a poly-D-lysine-coated 12-well plate at 5 × 10^5 cells/well and cultured in Neurobasal medium, supplemented with 2% B27, 0.5 mM L-glutamine, and 1% penicillin-streptomycin (Gibco-BRL, Invitrogen). Following 4 days in vitro (DIV), 5 µM of Ara-c was used to inhibit the growth of glial cells. Following 10-day DIV culturing, neurons were treated with select brain-bioavailable polyphenol metabolites for 16 h, washed once with cold PBS and RNA was then isolated. […]
(§1) Total RNA from MSN-enriched cultures or brain NAc was isolated using the RNeasy Mini Kit (Qiagen, Valencia, CA, USA) and reverse transcribed. Gene expression was measured in four replicates by quantitative RT-PCR using Maxima SYBR Green master mix (Fermentas) in ABI Prism 7900HT. […]

[2] = tested on: Rac1; assay: Rac1 expression in E18 MSN-enriched primary culture (screening, dose response); assay type: cell-based, mouse
Text: BDPP contains a variety of polyphenols. Orally consumed polyphenols are typically bioavailable in various organs and tissues as metabolites (phase II polyphenol conjugates and phenolic acids) following xenobiotic metabolism and gastrointestinal microbiome fermentation. It is possible that some metabolites may counteract the positive effect of the others. Therefore, if supplied as BDPP, the overall benefits might be reduced due to potential ‘cancellation’ effects. By identifying individual metabolites that selectively target key pathological mechanisms (e.g., Rac1 and IL-6) we can greatly improve the efficacy. We and others recently identified 21 BDPP-derived phenolic metabolites that accumulate in blood and/or in the CNS (14 polyphenolic metabolites and 7 phenolic acids, Supplementary Table 1)[25], [28], [33], among which 14 are currently accessible, [34]. We initiated a high-throughput screen of these metabolites for their ability to modulate IL-6 and Rac1. […]
as §1

COc1cc(-c2[o+]c3cc(O)cc(O)c3cc2O[C@@H]2O[C@H](CO)[C@@H](O)[C@H](O)[C@H]2O)cc(OC)c1O [Mal-gluc]
expression of HDAC2 [1]: significantly reduced the expression of HDAC2
expression of other class I or class II HDACs [1]: no observable effect
primary screening, Rac1 expression ([2]; 9 brain bioavailable metabolites screened): significantly increased Rac1 expression
EC50 ([2]; E18 MSN-enriched primary culture, 16 h, read-out: calculated EC50, increase of Rac1 expression): 3.52 nM
